Source: patent publication US20110039721A1, “METHOD FOR PREDICTION ABOUT CARCINOGENICITY OF SUBSTANCE IN RODENT” (Chemicals Evaluation and Research Institute, priority 2007, published 2011)

What was measured:
liver = details: classification of the substance (Cr+/Cr−); cited from earlier work
rodent = details: classification of the substance (C+/C−); cited from earlier work
[1] = classification of the substance (M+/M−); cited from earlier work
[2] = tested on: mRNA expressed from the genes (A) to (D) in rat liver; test: Behavior of genes (mRNA expression level, oligo-DNA microarray) in rat liver after 28-day oral administration; format: in vivo; details: mRNA vs vehicle control group
Method in brief: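 Male F344 SPF rats, 5 weeks old, four per group, dosed by oral gavage once daily for 28 days with test chemical or matched-volume solvent. Liver total RNA profiled on oligo-DNA microarray. Change ≥1.5-fold or ≤1/1.5 versus vehicle counted as significant if its direction matched that seen with other carcinogens.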

[3] = gene group (A), Unigene No. Rn.167075
[4] = gene group (C), Unigene No. Rn.120914

CCOC(=O)C(C)(C)Oc1ccc(Cl)cc1 [TS001, Clofibrate]
M−: Mutagenicity by Ames test [1]
−: Behavior of gene caused by administration of chemical substance, Gene No. 4846 ([2]; gene group (A), Unigene No. Rn.144554) | Behavior of gene caused by administration of chemical substance, Gene No. 4218 [2, 3] | Behavior of gene caused by administration of chemical substance, Gene No. 5600 ([2]; gene group (A), Unigene No. Rn.9836) | Behavior of gene caused by administration of chemical substance, Gene No. 1334 [2, 4] | Behavior of gene caused by administration of chemical substance, Gene No. 6620 [2, 4] | Behavior of gene caused by administration of chemical substance, Gene No. 6303 ([2]; gene group (C), Unigene No. Rn.123063) | Behavior of gene caused by administration of chemical substance, Gene No. 5878 ([2]; gene group (C), Unigene No. Rn.143213) | Behavior of gene caused by administration of chemical substance, Gene No. 1131 ([2]; gene group (C), Unigene No. Rn.144946) | Behavior of gene caused by administration of chemical substance, Gene No. 1562 ([2]; gene group (C), Unigene No. Rn.14744) | Behavior of gene caused by administration of chemical substance, Gene No. 1741 ([2]; gene group (C), Unigene No. Rn.1647) | Behavior of gene caused by administration of chemical substance, Gene No. 6026 ([2]; gene group (C), Unigene No. Rn.167685) | Behavior of gene caused by administration of chemical substance, Gene No. 154 ([2]; gene group (C), Unigene No. Rn.185941) | Behavior of gene caused by administration of chemical substance, Gene No. 1993 ([2]; gene group (C), Unigene No. Rn.18728) | Behavior of gene caused by administration of chemical substance, Gene No. 2494 ([2]; gene group (C), Unigene No. Rn.23969) | Behavior of gene caused by administration of chemical substance, Gene No. 2546 ([2]; gene group (C), Unigene No. Rn.24561) | Behavior of gene caused by administration of chemical substance, Gene No. 3776 ([2]; gene group (C), Unigene No. Rn.43232) | Behavior of gene caused by administration of chemical substance, Gene No. 3929 ([2]; gene group (C), Unigene No. Rn.4620) | Behavior of gene caused by administration of chemical substance, Gene No. 1119 ([2]; gene group (C), Unigene No. Rn.9757) | Behavior of gene caused by administration of chemical substance, Gene No. 5634 ([2]; gene group (C), Unigene No. Rn.9862) | Behavior of gene caused by administration of chemical substance, Gene No. 5726 ([2]; gene group (D), Unigene No. Rn.9939)
Cr+: Liver carcinogenicity (liver)
C+: Carcinogenicity (rodent)
+: Behavior of gene caused by administration of chemical substance, Gene No. 2026 [2, 3] | Behavior of gene caused by administration of chemical substance, Gene No. 6182 ([2]; gene group (A), Unigene No. Rn.5834) | Behavior of gene caused by administration of chemical substance, Gene No. 1494 ([2]; gene group (B), Unigene No. Rn.1430) | Behavior of gene caused by administration of chemical substance, Gene No. 2045 ([2]; gene group (B), Unigene No. Rn.19329) | Behavior of gene caused by administration of chemical substance, Gene No. 2203 ([2]; gene group (B), Unigene No. Rn.21240) | Behavior of gene caused by administration of chemical substance, Gene No. 533 ([2]; gene group (C), Unigene No. Rn.106184) | Behavior of gene caused by administration of chemical substance, Gene No. 725 ([2]; gene group (C), Unigene No. Rn.108075) | Behavior of gene caused by administration of chemical substance, Gene No. 1163 ([2]; gene group (C), Unigene No. Rn.11766) | Behavior of gene caused by administration of chemical substance, Gene No. 4973 ([2]; gene group (C), Unigene No. Rn.118529) | Behavior of gene caused by administration of chemical substance, Gene No. 4095 ([2]; gene group (C), Unigene No. Rn.119024) | Behavior of gene caused by administration of chemical substance, Gene No. 893 ([2]; gene group (C), Unigene No. Rn.164817) | Behavior of gene caused by administration of chemical substance, Gene No. 813 ([2]; gene group (C), Unigene No. Rn.201760) | Behavior of gene caused by administration of chemical substance, Gene No. 6742 ([2]; gene group (C), Unigene No. Rn.9779)
